The source of these data is ChEMBL document CHEMBL4118198, “Synthesis and antiviral evaluation of novel peptidomimetics as norovirus protease inhibitors” (Bioorg Med Chem Lett, 2018).

Some results are limits rather than exact numbers.

In data set [1] the target is T1, Protease (Norovirus Hu/GII.4-2002/WeertE022/2002/NL) (UniProt G1FEK8).
T1 sequence (whole entry): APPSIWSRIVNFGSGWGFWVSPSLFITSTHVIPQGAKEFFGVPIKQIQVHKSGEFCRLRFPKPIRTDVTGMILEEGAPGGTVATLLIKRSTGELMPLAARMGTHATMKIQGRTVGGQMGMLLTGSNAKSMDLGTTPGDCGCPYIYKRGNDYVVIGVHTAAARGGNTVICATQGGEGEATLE
Put plainly: (§1) Inhibition of Norovirus prototypic GII.4 3CL protease using HiLyte Fluor 488-labelled DFELQGPK as substrate incubated for 90 mins measured every mins for 20 mins by FRET assay. To be noted: Norovirus GII.4.

The target of the next data set is T2, Protease (Norovirus Hu/GII.4-2002/WeertE022/2002/NL, UniProt G1FEK8).
T2 sequence (G1FEK8 whole entry): T1 sequence (whole entry)
The data set is described as §1. On the set-up: species or system Norovirus GII.4.

Data set [2] has as its target Nonstructural polyprotein (Norovirus Hu/GI/10360/2010/VNM) (UniProt I1U3K2). Put plainly: (§2) Inhibition of Norovirus prototypic GI.1 3CL protease using HiLyte Fluor 488-labelled DFELQGPK as substrate incubated for 90 mins measured every mins for 20 mins by FRET assay. As to conditions: Norovirus GI.1.
Data set [3] concerns the target Nonstructural polyprotein (Norovirus Hu/GI/10360/2010/VNM, UniProt I1U3K2). The data set is described as §2. Also on record: species or system Norovirus GI.1.
The test system of data set [4] is Norovirus. The data set can be described thus: Antiviral activity against Norovirus prototypic GI.1 infected in human HG23 cells assessed as inhibition of viral RNA replication after 4 days by RT-qPCR method. Type of data set: functional, organism-based, Norovirus GI.1.
The next data set has as its system Huh-7. The data set can be described thus: Cytotoxicity against human HuH7 cells assessed as reduction in cell viability. The data set is classed as cell-based.
A further data set has as its system PBMC. Put plainly: Cytotoxicity against human PBMC assessed as reduction in cell viability after 6 days by trypan blue exclusion assay. As to conditions: 144 h. The data set is classed as cell-based.
A further data set has as its system CCRF-CEM. Put plainly: Cytotoxicity against human CEM cells assessed as reduction in cell viability after 6 days by trypan blue exclusion assay. The data set is classed as cell-based. To be noted: 144 h.
The subject of another data set is Vero. Put plainly: Cytotoxicity against African green monkey Vero cells assessed as reduction in cell viability after 3 days by hemocytometer. Type of data set: cell-based. To be noted: chlorocebus sabaeus, 72 h.
Data set [5] relates to Norovirus. Put plainly: Antiviral activity against Norovirus prototypic GI.1 infected in human HG23 cells assessed as inhibition of viral RNA replication at 10 uM after 4 days by RT-qPCR method relative to control. As to conditions: HG23, 96 h. Type of data set: functional, Norovirus GI.1.
Data set [6] has as its target T1, Protease (Norovirus Hu/GII.4-2002/WeertE022/2002/NL). Put plainly: Inhibition of Norovirus prototypic GII.4 3CL protease using HiLyte Fluor 488-labelled DFELQGPK as substrate incubated for 90 mins measured every mins for 20 mins by FRET assay relative to control. As to conditions: Norovirus GII.4.
The mark [7] stands for this setting: Norovirus, HG23, 96 h, read-out: EC50.

Chain of Nonstructural polyprotein (Norovirus Hu/GI/10360/2010/VNM) (I1U3K2 as listed by the source): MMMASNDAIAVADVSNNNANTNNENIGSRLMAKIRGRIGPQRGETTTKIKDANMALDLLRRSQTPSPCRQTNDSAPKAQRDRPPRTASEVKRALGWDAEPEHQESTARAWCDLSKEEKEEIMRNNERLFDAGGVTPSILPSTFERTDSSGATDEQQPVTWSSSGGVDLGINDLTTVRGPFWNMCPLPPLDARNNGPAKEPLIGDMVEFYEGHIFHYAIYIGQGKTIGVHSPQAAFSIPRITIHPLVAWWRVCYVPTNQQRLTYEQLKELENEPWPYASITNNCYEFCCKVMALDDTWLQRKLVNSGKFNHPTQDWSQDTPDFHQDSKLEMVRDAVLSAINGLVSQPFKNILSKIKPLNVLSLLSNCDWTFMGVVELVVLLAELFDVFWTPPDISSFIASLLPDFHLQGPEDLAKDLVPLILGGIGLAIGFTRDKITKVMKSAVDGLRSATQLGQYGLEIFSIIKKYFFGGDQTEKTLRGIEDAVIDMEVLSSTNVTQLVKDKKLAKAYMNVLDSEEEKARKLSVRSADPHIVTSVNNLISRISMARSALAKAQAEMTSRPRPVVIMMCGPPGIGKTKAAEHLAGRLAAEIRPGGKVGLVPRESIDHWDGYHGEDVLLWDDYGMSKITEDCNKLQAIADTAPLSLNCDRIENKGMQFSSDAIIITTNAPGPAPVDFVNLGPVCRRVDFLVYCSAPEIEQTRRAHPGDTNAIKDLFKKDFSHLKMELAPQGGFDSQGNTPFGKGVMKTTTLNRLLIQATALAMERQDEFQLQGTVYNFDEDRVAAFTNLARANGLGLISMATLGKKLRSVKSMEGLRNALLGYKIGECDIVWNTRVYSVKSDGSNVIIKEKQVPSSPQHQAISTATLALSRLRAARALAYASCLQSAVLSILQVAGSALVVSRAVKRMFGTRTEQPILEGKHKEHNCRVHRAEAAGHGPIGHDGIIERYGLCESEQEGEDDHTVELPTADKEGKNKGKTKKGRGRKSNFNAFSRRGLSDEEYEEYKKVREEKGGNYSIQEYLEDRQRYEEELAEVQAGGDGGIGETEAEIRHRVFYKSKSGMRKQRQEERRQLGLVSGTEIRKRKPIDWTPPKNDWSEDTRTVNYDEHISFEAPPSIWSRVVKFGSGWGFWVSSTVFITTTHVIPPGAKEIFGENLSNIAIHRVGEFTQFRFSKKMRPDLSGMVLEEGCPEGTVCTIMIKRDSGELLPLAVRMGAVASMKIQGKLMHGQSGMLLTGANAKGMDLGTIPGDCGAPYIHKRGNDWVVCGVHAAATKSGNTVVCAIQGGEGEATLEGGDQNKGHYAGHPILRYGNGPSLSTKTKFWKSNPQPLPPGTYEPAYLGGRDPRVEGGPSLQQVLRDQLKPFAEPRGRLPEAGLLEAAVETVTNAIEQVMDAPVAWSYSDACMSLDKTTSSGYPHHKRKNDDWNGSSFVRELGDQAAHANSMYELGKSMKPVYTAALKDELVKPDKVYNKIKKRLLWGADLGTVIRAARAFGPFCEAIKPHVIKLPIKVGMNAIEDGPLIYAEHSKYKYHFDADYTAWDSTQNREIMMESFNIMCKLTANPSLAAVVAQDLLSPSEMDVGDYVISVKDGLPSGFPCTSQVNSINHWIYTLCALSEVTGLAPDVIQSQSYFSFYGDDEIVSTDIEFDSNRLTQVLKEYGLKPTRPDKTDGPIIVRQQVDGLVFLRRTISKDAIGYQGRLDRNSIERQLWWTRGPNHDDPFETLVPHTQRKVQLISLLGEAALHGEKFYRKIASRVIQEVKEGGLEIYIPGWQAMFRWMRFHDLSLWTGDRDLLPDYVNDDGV
Chain of Nonstructural polyprotein (I1U3K2 whole entry): as the sequence (I1U3K2 as listed by the source) above

As to `CC(C)C[C@H](NC(=O)[C@H](Cc1cccc2ccccc12)NC(=O)OCc1ccccc1)C(=O)N[C@@H](C[C@@H]1CCCNC1=O)C(=O)C(F)(F)F`, the IC90 in data set [1] was 14 µM; in data set [2] it was 2.24 µM. For the same molecule, the results for the 50% inhibitory concentration (IC50) (at Protease; in data set [3]) were 2.63 µM and 0.654 µM, respectively. Also, in the data set with Norovirus [4] (Norovirus, HG23, 96 h), the concentration for an effect of 90% (EC90) is 2.45 µM. Also, the EC50 with Norovirus [4] (setting [7]) was 0.39 µM. Also, the 50% cytotoxic concentration (CC50) in the data set on Huh-7 is 11.2 µM; in the data set on PBMC, 43.8 µM; in the data set on CCRF-CEM it was 18.3 µM; in the data set on Vero, above 100 µM.
`CC(C)C[C@H](NC(=O)[C@H](Cc1cccc2ccccc12)NC(=O)OCc1ccccc1)C(=O)N[C@H](CO)Cn1ccnn1`: the results for the IC50 (against Protease; in data set [3]) were above 10 µM and above 1 µM, respectively. In the data set with Norovirus [4], the half-maximal effective concentration (EC50) result was “Nd(Toxic)”. In addition, in the data set with Norovirus [5], the inhibition at 10 µM was 99%. Further, the half-maximal cytotoxic concentration (CC50) in the data set on Huh-7 stood at 2.7 µM; in the data set on PBMC, 1.9 µM; in the data set with CCRF-CEM, 0.3 µM; in the data set on Vero it was 3.2 µM.
With `CC(C)C[C@H](NC(=O)[C@H](Cc1cccc2ccccc12)NC(=O)OCc1ccccc1)C(=O)N[C@H](C=O)C[C@@H]1CCCNC1=O`, the IC90 in data set [1] turned out to be 1.19 µM; in [2], 0.155 µM. Also, the IC50 turned out to be 0.15 µM against Protease and 0.08 µM in data set [3]. In addition, the 90% effect concentration (EC90) in the data set with Norovirus [4] (Norovirus, HG23, 96 h) came out at 0.92 µM. In the data set on Norovirus [4] (setting [7]), the EC50 was 0.42 µM. Further, the CC50 in the data set on Huh-7 came out at 25.7 µM; in the data set with PBMC, 23.6 µM; in the data set with CCRF-CEM, 31.6 µM; with Vero it was 19.8 µM.
`CC(C)C[C@H](NC(=O)[C@H](Cc1cccc2ccccc12)NC(=O)OCc1ccccc1)C(=O)N[C@@H](C[C@@H]1CCCNC1=O)C(O)S(=O)(=O)O` (some centres not stated): the figures for the IC90 in data set [1] and in data set [2] were 14 µM and 2.24 µM, respectively. Further, the results for the half-inhibitory concentration (IC50) (against Protease; in data set [3]) were 2.63 µM and 0.654 µM, respectively. For the same molecule, in the data set with Norovirus [4] (Norovirus, HG23, 96 h), the EC90 was 2.45 µM. The EC50 in the data set with Norovirus [4] (setting [7]) turned out to be 0.39 µM. Moreover, the CC50 was 11.2 µM with Huh-7, 43.8 µM in the data set with PBMC, 18.3 µM with CCRF-CEM and above 100 µM with Vero.
Molecule `CC(C)C[C@H](NC(=O)[C@H](Cc1cccc2ccccc12)NC(=O)OCc1ccccc1)C(=O)N[C@H](CCl)C[C@@H]1CCCNC1=O` displayed an IC50 at Protease above 100 µM. In addition, the EC50 in the data set with Norovirus [4] (setting [7]) is above 10 µM. In addition, the CC50 was found to be 75 µM in the data set on PBMC, 26.6 µM with CCRF-CEM and 51.7 µM in the data set with Vero.
For `CC(C)C[C@H](NC(=O)[C@H](Cc1cccc2ccccc12)NC(=O)OCc1ccccc1)C(=O)N[C@H](CO)CNC(=O)N1CCC1`, the 50% inhibitory concentration (IC50) (against Protease; in data set [3]) was above 100 µM each time. Further, in the data set on Norovirus [4] (setting [7]), the EC50 is above 10 µM. Also, the 50% cytotoxic concentration (CC50) in the data set on Huh-7 was 33 µM; in the data set on PBMC it was 21.2 µM; in the data set on CCRF-CEM it was 2.2 µM; in the data set with Vero, above 100 µM. Also, the inhibition in data set [6] was found to be 4%.
Regarding `CC(C)C[C@H](NC(=O)[C@H](Cc1cccc2ccccc12)NC(=O)OCc1ccccc1)C(=O)N[C@H](/C=C(\C#N)C(N)=O)C[C@@H]1CCCNC1=O`, the concentration for an effect of 90% (IC90) was found to be 3.6 µM in data set [1] and 1.7 µM in [2]. In addition, the half-inhibitory concentration (IC50) against Protease is 1.17 µM; in data set [3], 0.593 µM. In addition, the EC90 with Norovirus [4] (Norovirus, HG23, 96 h) is 7.82 µM. Further, the EC50 with Norovirus [4] (setting [7]) stood at 0.75 µM. The half-maximal cytotoxic concentration (CC50) with Huh-7 is 8.4 µM; in the data set with PBMC, 45.4 µM; in the data set with CCRF-CEM, 9.1 µM; in the data set with Vero it was above 100 µM.
The molecule `CC(C)C[C@H](NC(=O)[C@H](Cc1cccc2ccccc12)NC(=O)OCc1ccccc1)C(=O)NC(C[C@@H]1CCNC1=O)C1OC1S(C)(=O)=O` (some centres not stated) displayed an IC90 in data set [1] above 100 µM. In addition, the IC50 at Protease is 30 µM; in data set [3], above 10 µM. Further, in the data set with Norovirus [4] (Norovirus, HG23, 96 h), the concentration for an effect of 90% (EC90) was above 20 µM. Also, the EC50 in the data set with Norovirus [4] (setting [7]) is 4.33 µM. Besides, the figures for the CC50 in the data set on PBMC, in the data set with CCRF-CEM and with Vero were above 100 µM, 63.9 µM and above 100 µM, respectively.
With `CC(C)C[C@H](NC(=O)[C@H](Cc1cccc2ccccc12)NC(=O)OCc1ccccc1)C(=O)NC(/C=C/C=O)C[C@@H]1CCNC1=O` (some centres not stated), the results for the IC50 (at Protease; in [3]) were above 100 µM and above 10 µM, respectively. The 90% effect concentration (EC90) with Norovirus [4] (Norovirus, HG23, 96 h) was above 10 µM. The EC50 with Norovirus [4] (setting [7]) was found to be 4.7 µM. For the same molecule, the half-maximal cytotoxic concentration (CC50) in the data set with PBMC is 3.9 µM; in the data set on CCRF-CEM, 1.9 µM; with Vero, 77.7 µM.
On to `CC(C)C[C@H](NC(=O)[C@H](Cc1cccc2ccccc12)NC(=O)OCc1ccccc1)C(=O)NC(C[C@@H]1CCNC1=O)C1CO1` (some centres not stated), for which the 50% inhibitory concentration (IC50) (at Protease; in [3]) was above 100 µM in each case. For the same molecule, the EC50 in the data set on Norovirus [4] (setting [7]) was above 10 µM. In addition, the CC50 came to 15.7 µM in the data set on PBMC, 14 µM with CCRF-CEM and 30.4 µM in the data set on Vero.
As for `CC(C)C[C@H](NC(=O)[C@H](Cc1cccc2ccccc12)NC(=O)OCc1ccccc1)C(=O)N[C@H](C=O)C[C@@H]1CCNC1=O`, the IC90 in data set [1] is 0.205 µM; in data set [2], 0.248 µM. For the same molecule, the half-inhibitory concentration (IC50) at Protease stood at 0.06 µM; in data set [3], 0.032 µM. Moreover, the EC90 with Norovirus [4] (Norovirus, HG23, 96 h) turned out to be 8.36 µM. In the data set with Norovirus [4] (setting [7]), the EC50 stood at 1.13 µM. Also, the 50% cytotoxic concentration (CC50) with Huh-7 is above 10 µM; in the data set on PBMC, 28.4 µM; in the data set with CCRF-CEM it was 39.5 µM; in the data set on Vero, above 100 µM.
In turn, `CC(C)C[C@H](NC(=O)[C@H](Cc1cccc2ccccc12)NC(=O)OCc1ccccc1)C(=O)N[C@H](CO)CCC(=O)N1CCC1` came in with a concentration for an effect of 90% (IC90) in data set [1] of 5.54 µM. Moreover, the IC50 against Protease is 0.502 µM; in data set [3], above 1 µM. In the data set on Norovirus [4] (Norovirus, HG23, 96 h), the concentration for an effect of 90% (EC90) is 17.3 µM. The 50% effective concentration (EC50) with Norovirus [4] (setting [7]) came to 6.19 µM. Further, the cytotoxic concentration (CC50) in the data set on PBMC was 18.4 µM; in the data set on CCRF-CEM it was 2.2 µM; with Vero, 8.6 µM.
As to `CC(C)C[C@H](NC(=O)[C@H](Cc1cccc2ccccc12)NC(=O)OCc1ccccc1)C(=O)N[C@H](CS)C[C@@H]1CCNC1=O`, the IC50 (on Protease; in [3]) was above 10 µM in each case. In addition, the EC50 in the data set on Norovirus [4] (setting [7]) was above 10 µM. For the same molecule, the CC50 is 93.5 µM with Huh-7, above 100 µM in the data set on PBMC, above 100 µM in the data set with CCRF-CEM and above 100 µM in the data set with Vero.
